Reference: publication PMC10586439 (ACS Omega, 2023)
Like-named read-outs stand apart in the source and are kept apart here.

Columns and labels:
[1] = test system: MDA-MB-231 human breast carcinoma cell line; experiment: MTT cytotoxicity assay against MDA-MB-231 breast carcinoma cell line; format: cell-based
[2] = test system: normal MCF-10A breast cells; experiment: MTT cytotoxicity assay on normal MCF-10A breast cells; format: cell-based; conditions: for IC50: Homo sapiens, MCF-10A, read-out: IC50 value (μM) MCF-10A
β-tubulin = β-tubulin (Homo sapiens, UniProt P07437+P68363); experiment: β-Tubulin polymerization inhibition; format: biochemical; conditions: read-out: β-tubulin polymerization inhibition percentage
MDA-MB-231 cells [3] = experiment: Cell cycle analysis by flow cytometry; format: cell-based, human
MDA-MB-231 cells [4] = experiment: Annexin V-FITC/PI apoptosis assay by flow cytometry; format: cell-based, human; conditions: MDA-MB-231, 48 h, compound at its IC50
[5] = MDA-MB-231, 24 h, read-out: IC50 value (μM) MDA-MB-231
[6] = MDA-MB-231, read-out: IC50 against MDA-MB-231 cells

Sequence of β-tubulin (P07437 whole entry): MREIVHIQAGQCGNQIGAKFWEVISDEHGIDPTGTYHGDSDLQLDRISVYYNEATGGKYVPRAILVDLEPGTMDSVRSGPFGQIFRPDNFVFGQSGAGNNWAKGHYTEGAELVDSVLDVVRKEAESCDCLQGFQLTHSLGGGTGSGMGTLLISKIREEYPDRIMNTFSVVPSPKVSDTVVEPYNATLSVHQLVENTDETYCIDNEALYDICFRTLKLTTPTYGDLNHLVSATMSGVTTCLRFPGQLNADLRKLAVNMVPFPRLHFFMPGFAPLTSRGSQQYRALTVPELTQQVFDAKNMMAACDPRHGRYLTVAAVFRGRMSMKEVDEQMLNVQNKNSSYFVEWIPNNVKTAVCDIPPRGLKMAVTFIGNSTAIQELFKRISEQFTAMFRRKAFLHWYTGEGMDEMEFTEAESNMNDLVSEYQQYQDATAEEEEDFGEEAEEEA
Sequence of β-tubulin (P68363 whole entry): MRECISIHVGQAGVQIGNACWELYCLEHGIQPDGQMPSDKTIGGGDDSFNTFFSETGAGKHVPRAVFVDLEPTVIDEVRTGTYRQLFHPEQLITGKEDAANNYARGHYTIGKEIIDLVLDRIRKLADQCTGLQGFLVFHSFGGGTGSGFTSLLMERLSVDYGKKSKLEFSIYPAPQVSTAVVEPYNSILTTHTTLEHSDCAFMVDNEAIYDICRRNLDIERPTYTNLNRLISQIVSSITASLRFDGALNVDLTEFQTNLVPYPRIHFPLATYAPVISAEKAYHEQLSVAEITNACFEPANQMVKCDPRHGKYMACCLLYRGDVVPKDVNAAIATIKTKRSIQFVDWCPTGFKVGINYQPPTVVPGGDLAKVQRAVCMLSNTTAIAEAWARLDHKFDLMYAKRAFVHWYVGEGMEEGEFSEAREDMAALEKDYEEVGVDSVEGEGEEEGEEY

Row | Structure (SMILES) | IC50 [1, 5] [µM] | inhibition at 25 µM (β-tubulin) [%] | also measured
1 | CCOC(=O)/C(=C/c1ccc(Cl)cc1)NC(=O)c1ccc(OC)c(OC)c1 [5b, (Z)-Ethyl 3-(4-Chlorophenyl)-2-(3,4-dimethoxybenzamido)acrylate] | 15.8 ± 0.41 |  | 
2 | CCCOC(=O)/C(=C/c1ccc(Cl)cc1)NC(=O)c1ccc(OC)c(OC)c1 [5c, (Z)-Propyl 3-(4-Chlorophenyl)-2-(3,4-dimethoxybenzamido)acrylate] | 14.3 ± 0.33 |  | 
3 | COc1ccc(C(=O)N/C(=C\c2ccc(Cl)cc2)C(=O)O)cc1OC [4a, (Z)-3-(4-Chlorophenyl)-2-(3,4-dimethoxybenzamido)acrylic Acid] | 8.24 ± 0.37 |  | IC50 [1, 6]: 8.55 to 15.9 µM
4 | COc1ccc(/C=C\c2cc(OC)c(OC)c(OC)c2)cc1O [CA-4, combretastatin A-4, reference compound] | 1.27 | 89.8 | IC50 [2]: 14.2 ± 0.29 µM
5 | COC(=O)/C(=C/c1ccc(Cl)cc1)NC(=O)c1ccc(OC)c(OC)c1 [5a, (Z)-Methyl 3-(4-Chlorophenyl)-2-(3,4-dimethoxybenzamido)acrylate] | 4.84 ± 0.19 | 57.1 | 
6 | COC(=O)/C(=C/c1ccc(Cl)cc1)NC(=O)c1cc(OC)c(OC)c(OC)c1 [5e, (Z)-Methyl 3-(4-Chlorophenyl)-2-(3,4,5-trimethoxybenzamido)acrylate] | 4.03 ± 0.16 | 77.8 | IC50 [1, 6]: 4.06 µM
7 | COc1cc(C(=O)N/C(=C\c2ccc(Cl)cc2)C(=O)O)cc(OC)c1OC [4b, (Z)-3-(4-Chlorophenyl)-2-(3,4,5-trimethoxybenzamido)acrylic Acid] | 3.24 ± 0.13 | 80.1 | percentage of cells in G2/M phase (MDA-MB-231 cells [3]; MDA-MB-231, 48 h, compound at its IC50, untreated control 7.35%): 28.08%; cell accumulation at G2/M stage, times higher than untreated control (MDA-MB-231 cells [3]; MDA-MB-231, compound at its IC50): 3.82 times; late-secondary cellular apoptosis (MDA-MB-231 cells [4]; untreated control 0.24%): 12.62%; early primary apoptosis (MDA-MB-231 cells [4]; untreated control 0.69%): 8.09%; IC50 [2]: 23.3 ± 0.32 µM; mean tumor selectivity index ([2]; MCF-10A versus MDA-MB-231): 7.2
8 | CCCCOC(=O)/C(=C/c1ccc(Cl)cc1)NC(=O)c1ccc(OC)c(OC)c1 [5d, (Z)-Butyl 3-(4-Chlorophenyl)-2-(3,4-dimethoxybenzamido)acrylate] | 45.9 ± 1.02 |  | IC50 [1, 6]: 45.8 µM
9 | CCCCOC(=O)/C(=C/c1ccc(Cl)cc1)NC(=O)c1cc(OC)c(OC)c(OC)c1 [5i, (Z)-Butyl 3-(4-Chlorophenyl)-2-(3,4,5-trimethoxybenzamido)acrylate] | 28.1 ± 0.56 |  | 
10 | CCOC(=O)/C(=C/c1ccc(Cl)cc1)NC(=O)c1cc(OC)c(OC)c(OC)c1 [5f, (Z)-Ethyl 3-(4-Chlorophenyl)-2-(3,4,5-trimethoxybenzamido)acrylate] | 11.6 ± 0.24 |  | 
11 | CCCOC(=O)/C(=C/c1ccc(Cl)cc1)NC(=O)c1cc(OC)c(OC)c(OC)c1 [5g, (Z)-Propyl 3-(4-Chlorophenyl)-2-(3,4,5-trimethoxybenzamido)acrylate] | 23.2 ± 0.4 |  | 
12 | COc1cc(C(=O)N/C(=C\c2ccc(Cl)cc2)C(=O)OC(C)C)cc(OC)c1OC [5h, (Z)-Isopropyl 3-(4-Chlorophenyl)-2-(3,4,5-trimethoxybenzamido)acrylate] | 25.2 ± 0.51 |  | 
